Structures can show the parent of a compound that is named as a salt.
These compounds were tested against recombinant human CYP17 enzyme (Homo sapiens (Human), UniProt P05093) (assay: Cytochrome P450, 17-20 lyase (CYP17-lyase) assay, tritiated acetic acid release from 17-α-hydroxy pregnenolone [21-3H]). Conditions: human CYP17, substrate 0.25 μM; read-out: Lyase IC 50 nM Human/Rat (Human).
Chain of recombinant human CYP17 enzyme (P05093 whole entry): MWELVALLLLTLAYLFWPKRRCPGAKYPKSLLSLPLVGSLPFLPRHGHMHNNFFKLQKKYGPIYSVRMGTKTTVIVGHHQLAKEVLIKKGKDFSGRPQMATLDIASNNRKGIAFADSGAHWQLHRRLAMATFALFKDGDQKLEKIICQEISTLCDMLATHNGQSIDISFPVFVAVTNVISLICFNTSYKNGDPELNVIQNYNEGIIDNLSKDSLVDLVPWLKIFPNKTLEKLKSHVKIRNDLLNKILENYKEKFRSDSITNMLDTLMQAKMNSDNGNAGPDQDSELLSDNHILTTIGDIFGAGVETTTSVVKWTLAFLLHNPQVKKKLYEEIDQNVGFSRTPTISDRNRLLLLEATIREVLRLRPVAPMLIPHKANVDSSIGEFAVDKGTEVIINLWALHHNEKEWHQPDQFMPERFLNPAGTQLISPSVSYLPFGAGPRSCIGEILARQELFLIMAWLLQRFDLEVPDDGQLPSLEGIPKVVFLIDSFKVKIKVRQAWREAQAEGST
Format: biochemical
From the text: Assay method was adopted from a published protocol with some modifications to suit our requirements (Dmitry N Grigoryev et al, Analytical Biochemistry, (1999) 267, 319-330). […] Chloroform extraction removes the radioactive steroids and acetic acid is taken into aqueous layer. The tritiated acetic acid released in the assay thus extracted is quantified to determine the enzyme activity. […] The purified cell membrane preparations were used as the source for Human CYP17 enzyme. […] O, Nijar, et al., J Med Chem, (1998) 41, 902-912). […] Km for this substrate was determined by monitoring the tritiated acetic acid release as a function of substrate concentration. […] For the Km determination, the data was fit to a hyperbolic equation (Graphpad Prism® software IV). […] (Dmitry N. Grigoryev et al, Analytical Biochemistry (1999) 267, 319-330) […] NADPH is used at a final concentration of 4.2 mM. Total reaction volume was made up to 50 μL with 50 mM Phosphate buffer pH 7.5. The reaction mixture was incubated at room temperature for 90 minutes with gentle shaking. The reaction was stopped by the addition of 100 μL of buffer. 500 μL of 5% freshly prepared activated charcoal was added to the solution and mixed well by vortexing. The samples were centrifuged at 17568×g for 5 minutes. (14000 rpm). The supernatant was carefully transferred to fresh tube and 1.3 mL of scintillation fluid was added, mixed by vortexing. The radioactivity was measured in a 1450 MicroBeta TriLux™ scintillation counter from Wallac-Perkin Elmer®, USA. The measurements were carried out in 2.0 mL Eppendorforf™ tubes. […] The amount of tritiated acetic acid released is proportional to the lyase activity. Percent lyase activity in presence of inhibitor was calculated using the formula given below. […] Enzyme reaction in presence of inhibitor. • Positive control: […] For IC50 determination, the % inhibition was plotted as a function of inhibitor concentration. The data was fitted to sigmoidal equation using Graphpad Prism® software IV to generate IC50 values.
In the case of `Cc1ccncc1N1CCN(c2ccc3c(c2)C(C)(C)C(=O)N3CO)C1=O` [Example 147A, 1-Hydroxymethyl-3,3-dimethyl-5-[3-(4-methyl-pyridin-3-yl)-2-oxo-imidazolidin-1-yl]-1,3-dihydro-indol-2-one], the IC50 is reported as 346 nM.
Compound `Cc1ccncc1N1CCN(c2ccnc(C(F)(F)F)c2)C1=O` [Example 148A, 1-(4-Methyl-pyridin-3-yl)-3-(2-trifluoromethyl-pyridin-4-yl)-imidazolidin-2-one] has an IC50 of 25 nM.
Work on `COC(OC)c1ccncc1N1CCN(c2ccc3ncsc3c2)C1=O` [Example 149A, 1-Benzothiazol-6-yl-3-(4-dimethoxymethyl-pyridin-3-yl)-imidazolidin-2-one] yielded an IC50 of 37 nM.
`CC(=O)Nc1ccncc1N1CCN(c2ccc3ncsc3c2)C1=O` [Example 150A, N-[3-(3-Benzothiazol-6-yl-2-oxo-imidazolidin-1-yl)-pyridin-4-yl]-acetamide] showed an IC50 of 496 nM.
`Cc1c(Cl)cncc1N1CCN(c2ccc3ncsc3c2)C1=O` [Example 151A, 1-Benzothiazol-6-yl-3-(5-chloro-4-methyl-pyridin-3-yl)-imidazolidin-2-one] was tested, and the IC50 was 13.3 nM.
`Nc1ccncc1N1CCN(c2ccc3ncsc3c2)C1=O` [Example 152A, 1-(4-Amino-pyridin-3-yl)-3-benzothiazol-6-yl-imidazolidin-2-one Hydrochloride Salt] gave an IC50 of 7 nM.
`Cc1ccncc1N1CCN(c2ccc(C(F)(F)F)s2)C1=O` [Example 155A, 1-(4-Methylpyridin-3-yl)-3-(5-(trifluoromethyl)thiophen-2-yl)-imidazolidin-2-one] showed an IC50 of 2.7 nM.
With `CC(O)c1ccncc1N1CCN(c2ccc3ncsc3c2)C1=O` (stereo not shown) [Example 158A, 1-(benzo[d]thiazol-6-yl)-3-(4-(1-hydroxyethyl)pyridin-3-yl)imidazolidin-2-one] the IC50 was 38 nM.
Compound `CCc1ccncc1N1CCN(c2ccc3ncsc3c2)C1=O` [Example 159A, 1-(benzo[d]thiazol-6-yl)-3-(4-ethylpyridin-3-yl)imidazolidin-2-one] has an IC50 of 3.4 nM.
In the case of `Cc1ccncc1N1CCN(c2ccc3c(C(F)(F)F)n[nH]c3c2)C1=O` [Example 160A, 1-(4-methylpyridin-3-yl)-3-(3-(trifluoromethyl)-1H-indazol-6-yl)imidazolidin-2-one], the IC50 is reported as 34 nM.
`Cc1ccncc1N1CCN(c2ccc3c(C4CC4)n[nH]c3c2)C1=O` [Example 161A, 1-(3-Cyclopropyl-1H-indazol-6-yl)-3-(4-methylpyridin-3-yl)imidazolidin-2-one] was tested, and the IC50 was 82 nM.
Compound `Cc1ccncc1N1CCN(c2ccc3cccnc3c2)C1=O` [Example 162A, 1-(4-methylpyridin-3-yl)-3-(quinolin-7-yl)imidazolidin-2-one] has an IC50 of 317 nM.
For `CC1(C)CN(c2ccc3ncsc3c2)C(=O)N1c1cccnc1` [Example 164A, 1-Benzothiazol-6-yl-4,4-dimethyl-3-pyridin-3-yl-imidazolidin-2-one], the IC50 was 70 nM.
Compound `Cc1ccncc1N1C(=O)N(c2ccc3ncsc3c2)CC1(C)C` [Example 165A, 1-Benzothiazol-6-yl-4,4-dimethyl-3-(4-methyl-pyridin-3-yl)-imidazolidin-2-one] has an IC50 of 1150 nM.
Compound `Cc1ccncc1N1CC(C)N(c2ccc3ncsc3c2)C1=O` (stereo not shown) [Example 166A, 3-Benzothiazol-6-yl-4-methyl-1-(4-methyl-pyridin-3-yl)-imidazolidin-2-one] has an IC50 of 32 nM.
In the case of `Cc1ccncc1N1C(=O)N(c2ccc3ncsc3c2)CC1C` (stereo not shown) [Example 167A, 1-Benzothiazol-6-yl-4-methyl-3-(4-methyl-pyridin-3-yl)-imidazolidin-2-one], the IC50 is reported as 38 nM.
Compound `CCc1cn(-c2ccc3ncsc3c2)c(=O)n1-c1cnccc1C` [Example 168A, 1-Benzothiazol-6-yl-4-ethyl-3-(4-methyl-pyridin-3-yl)-1,3-dihydro-imidazol-2-one] has an IC50 of 384 nM.
In the case of `Cc1ccncc1N1C(=O)N(c2ccc3ncsc3c2)C(C)C1C` (stereo not shown) [Example 175A, 1-Benzothiazol-6-yl-4,5-dimethyl-3-(4-methyl-pyridin-3-yl)-imidazolidin-2-one], the IC50 is reported as 85 nM.
With `O=C1N(c2ccc3ncsc3c2)CCN1c1cnccc1CN1CCCC1` [Example 176A, 1-Benzothiazol-6-yl-3-(4-pyrrolidin-1-ylmethyl-pyridin-3-yl)-imidazolidin-2-one] the IC50 was 39 nM.
For `O=C1N(c2ccc3ncsc3c2)CCN1c1cnccc1CN1CCOCC1` [Example 177A, 1-benzothiazol-6-yl-3-(4-morpholin-4-ylmethyl-pyridin-3-yl)-imidazolidin-2-one], the IC50 was 32 nM.
`O=C1N(c2ccc3ncsc3c2)CCN1c1cnccc1CNC1CC1` [Example 178A, 1-Benzothiazol-6-yl-3-(4-cyclopropylaminomethyl-pyridin-3-yl)-imidazolidin-2-one] gave an IC50 of 19 nM.
For `Cc1cc(NCc2ccncc2N2CCN(c3ccc4ncsc4c3)C2=O)n[nH]1` [Example 182A, 1-Benzothiazol-6-yl-3-{4-[(5-methyl-1H-pyrazol-3-ylamino)-methyl]-pyridin-3-yl}-imidazolidin-2-one], the IC50 was 27 nM.
Compound `Cn1cncc1N1CCN(c2ccc3ncsc3c2)C1=O` [Example 188A, 3-Benzothiazol-6-yl-3′-methyl-4,5-dihydro-3H,3′H-[1,4]biimidazolyl-2-one] has an IC50 of 195 nM.
In the case of `Cc1ccncc1N1CCN(c2cnsc2)C1=O` [Example 190A, 1-Isothiazol-4-yl-3-(4-methyl-pyridin-3-yl)-imidazolidin-2-one], the IC50 is reported as 89 nM.
Compound `Cc1ccncc1N1CCN(c2cc3c(C)nccc3s2)C1=O` [Example 194A] has an IC50 of 21 nM.

Same assay, conditions: human CYP17, substrate 0.25 μM; read-out: Lyase IC 50 Human/Rat (Human)
For `CC(C)(O)c1ccncc1N1CCN(c2ccc3ncsc3c2)C1=O` [Example 156A, 1-(benzo[d]thiazol-6-yl)-3-(4-(2-hydroxypropan-2-yl)pyridin-3-yl)imidazolidin-2-one], the IC50 was > 10000 nM.
`Cc1ccncc1N1CC(C)(C)N(c2ccc3ncsc3c2)C1=O` [Example 163A, 3-Benzothiazol-6-yl-4,4-dimethyl-1-(4-methyl-pyridin-3-yl)-imidazolidin-2-one] was tested, and the IC50 was > 10000 nM.
`O=C1N(c2cnc3[nH]cnc3c2)CCN1c1ccc2ncsc2c1` [Example 183A, 1-Benzothiazol-6-yl-3-(3H-imidazo[4,5-b]pyridin-6-yl)-imidazolidin-2-one] was tested, and the IC50 was > 10000 nM.
`CN1CCC(COc2ccncc2N2CCN(c3ccc4ncsc4c3)C2=O)CC1` [Example 184A, 1-Benzothiazol-6-yl-3-[4-(1-methyl-piperidin-4-ylmethoxy)-pyridin-3-yl]-imidazolidin-2-one] was tested, and the IC50 was > 10000 nM.
In the case of `NC(=O)c1ccncc1N1CCN(c2ccc3ncsc3c2)C1=O` [Example 185A, 3-(3-Benzothiazol-6-yl-2-oxo-imidazolidin-1-yl)-isonicotinamide], the IC50 is reported as > 10000 nM.
In the case of `O=C1N(c2ccc3ncsc3c2)CCN1c1cncc2nccn12` [Example 186A, 1-Benzothiazol-6-yl-3-imidazo[1,2-a]pyrazin-5-yl-imidazolidin-2-one], the IC50 is reported as > 10000 nM.
With `O=C1N(c2cnc3[nH]ccc3c2)CCN1c1ccc2ncsc2c1` [Example 187A, 1-Benzothiazol-6-yl-3-(1H-pyrrolo[2,3-b]pyridin-5-yl)-imidazolidin-2-one] the IC50 was > 10000 nM.
`O=C1N(c2ccc3ncsc3c2)CCN1c1ccccn1` [Example 191A, 1-Benzothiazol-6-yl-3-pyridin-2-yl-imidazolidin-2-one] was tested, and the IC50 was > 10000 nM.

Same assay, conditions: read-out: Lyase IC 50 nM Human/Rat (Human)
In the case of `Cc1c(N2CCN(c3ccc4ncsc4c3)C2=O)cncc1C(F)(F)F` [Example 153A, 1-(benzo[d]thiazol-6-yl)-3-(4-methyl-5-(trifluoromethyl)pyridin-3-yl)imidazolidin-2-one, Trifluoroacetic Acid Salt], the IC50 is reported as 280 nM.
